Experimental data: US20100125059A1, “1-BIARYLAZETIDINONE DERIVATIVE” (Teijin Pharma Limited, priority 2007, published 2010)
Where two headings read alike, the source gives them in different places.

What was measured:
[1] = system: hamsters fed a high cholesterol diet; assay: Measurement of lipid lowering effect in hamsters fed a high cholesterol diet; type: in vivo, Male Golden Syrian hamsters; conditions: for inhibition in vivo at 0.01 mg/kg / inhibition in vivo at 0.1 mg/kg: Mesocricetus auratus, po, 168 h, gavage once daily, 7 days; for a serum TC lowering effect at a dose of 0.1 mg/kg: Table 22, suppression rate of an increase in serum TC concentration
Summary of the method: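 Male Golden Syrian hamsters (6/group) on 0.5% cholesterol diet, dosed by gavage once daily in corn oil at 0.01 to 10 mg/kg; serum and liver sampled 4 h after last dose. TC, TG and LDL-C measured enzymatically; effects expressed as % suppression versus control and normal-diet groups.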

Caco-2 cells = assay: Cholesterol absorption inhibition assay (in vitro), [14C] cholesterol mixed micelles; type: cell-based; conditions: Homo sapiens, 24 hours, read-out: cholesterol absorption inhibitory activity; for inhibition at 10 µM: concentration of 10 μM; for inhibition at 12.5 µM: concentration of 12.5 μM
Procedure: This assay measures cholesterol absorption inhibitory activity by adding mixed micelles containing [^14C] cholesterol to cells and measuring cholesterol taken in the cells as oleic acid cholesteryl ester. The assay is conducted after Caco-2 cells are seeded on multi-well plates and cultured (culture medium: DMEM containing 10% fetal bovine serum, 1% non-essential amino acids, 1% penicillin, and 1% streptomycin) for 2 weeks. To each well, the micelle solution (in an amount required to provide the following final concentrations: 600 μM of sodium oleate, 50 μM of phosphatidyl choline, 5 mM of sodium taurocholate, 2.5 μM of cholesterol, and 2.5 μM of [^14C] cholesterol) and a test compound solution (in an amount required to provide the final concentration of 0.5 to 25 μM) or a solvent as a control are added, and incubation is started at 37° C. 24 hours later, the culture medium is removed, and the lipid component is extracted with hexane/2-propanol (3:2, v/v) and applied onto thin-layer silica gel plates. After drying, each plate is eluted with a mixture of hexane, diethyl ether, and acetic acid in a ratio of 83:16:1. The plates are photoexposed on imaging plates and analyzed using BAS-2500 (FUJIFILM). The amounts of light exposure of the areas corresponding to the cholesteryl ester are calculated. Background is measured using a blank space of the plate. Inhibition rates are calculated using values obtained by subtracting the background values from both values of the control and the test sample, respectively, in accordance with the following equation. A test value is calculated as a percentage (%) with respect to the control.
In the Equation 1, A is the control group, BG is a background, and B is the test compound.
The following results were obtained from the measurement by this method on cholesterol absorption inhibitory activity of the compounds of the present invention. The following results were obtained by the evaluation using concentrations of 10 μM and/or 12.5 μM.

[2] = read-out: serum TC lowering effect (suppression rate of an increase in serum TC concentration)
[3] = read-out: serum TG lowering effect (serum TG lowering rate)
[4] = read-out: serum LDL-C lowering effect (suppression rate of an increase in serum LDL-C concentration)
[5] = read-out: liver TC lowering effect (suppression rate of an increase in liver TC concentration)

SMILES: O=C1[C@H](SC[C@H](O)c2ccc3occc3c2)[C@@H](c2ccc(O)cc2)N1c1ccc(-c2cccnc2)cc1 [Example 31, (3R,4R)-3-((2R)-2-benzo[b]furan-5-yl-2-hydroxyethylthio)-4-(4-hydroxyphenyl)-1-[4-(pyridin-3-yl)phenyl]azetidin-2-one]
- inhibition in vivo at 0.01 mg/kg [1, 2]: ≥ 30%
- inhibition in vivo at 0.1 mg/kg [1, 3]: ≥ 20%
- inhibition at 10 µM (Caco-2 cells): ≥ 50%
- inhibition at 12.5 µM (Caco-2 cells): ≥ 60%

SMILES: O=C1[C@H](SC[C@H](O)c2ccc(Cl)cc2)[C@@H](c2ccc(O)cc2)N1c1ccc(-c2cccnc2)cc1 [Example 32, (3R,4R)-3-[(2R)-2-(4-chlorophenyl)-2-hydroxyethylthio]-4-(4-hydroxyphenyl)-1-[4-(pyridin-3-yl)phenyl]azetidin-2-one]
- inhibition in vivo at 0.01 mg/kg [1, 4]: ≥ 30%
- inhibition in vivo at 0.1 mg/kg [1, 3]: ≥ 20%
- inhibition at 10 µM (Caco-2 cells): ≥ 50%
- inhibition at 12.5 µM (Caco-2 cells): ≥ 60%

SMILES: O=C1[C@H](SC[C@H](O)c2ccc(F)cc2)[C@@H](c2ccc(O)cc2)N1c1ccc(-c2ncc(F)cc2F)cc1 [Example 34, (3R,4R)-3-[(2R)-2-(4-fluorophenyl)-2-hydroxyethylthio]-1-[4-(3,5-difluoropyridin-2-yl)phenyl]-4-(4-hydroxyphenyl)azetidin-2-one]
- inhibition in vivo at 0.1 mg/kg [1, 3]: ≥ 20%
- inhibition at 10 µM (Caco-2 cells): ≥ 50%

SMILES: Cc1cc(O)ccc1[C@@H]1[C@@H](SC[C@H](O)c2ccc(F)cc2)C(=O)N1c1ccc(-c2cccnc2)cc1 [Example 38, (3R,4R)-3-[(2R)-2-(4-fluorophenyl)-2-hydroxyethylthio]-4-(4-hydroxy-2-methylphenyl)-1-[4-(pyridin-3-yl)phenyl]azetidin-2-one]
- inhibition in vivo at 0.01 mg/kg [1, 4]: ≥ 30%
- inhibition in vivo at 0.1 mg/kg [1, 4]: ≥ 50%
- inhibition in vivo at 0.1 mg/kg [1, 2]: ≥ 50%
- inhibition at 10 µM (Caco-2 cells): ≥ 50%

SMILES: Cc1ccc([C@@H](O)CS[C@H]2C(=O)N(c3ccc(-c4cccnc4)cc3)[C@@H]2c2ccc(O)cc2)cc1 [Example 45, (3R,4R)-3-[(2R)-2-hydroxy-2-(4-methylphenyl)ethylthio]-4-(4-hydroxyphenyl)-1-[4-(pyridin-3-yl)phenyl]azetidin-2-one]
- inhibition in vivo at 0.1 mg/kg [1, 4]: ≥ 50%
- inhibition in vivo at 0.1 mg/kg [1, 2]: ≥ 50%
- inhibition at 10 µM (Caco-2 cells): ≥ 50%
- inhibition at 12.5 µM (Caco-2 cells): ≥ 60%

SMILES: CC(=O)c1cncc(-c2ccc(N3C(=O)[C@H](SC[C@H](O)c4ccc(F)cc4)[C@H]3c3ccc(O)cc3)cc2)c1 [Example 48, (3R,4R)-3-[(2R)-2-(4-fluorophenyl)-2-hydroxyethylthio]-1-[4-(5-acetylpyridin-3-yl)phenyl]-4-(4-hydroxyphenyl)azetidin-2-one]
- inhibition in vivo at 0.1 mg/kg [1, 3]: ≥ 20%
- inhibition at 10 µM (Caco-2 cells): ≥ 50%
- inhibition at 12.5 µM (Caco-2 cells): ≥ 60%

SMILES: COc1cncc(-c2ccc(N3C(=O)[C@H](SC[C@H](O)c4ccc(F)cc4)[C@H]3c3ccc(O)cc3)cc2)c1 [Example 50, (3R,4R)-3-[(2R)-2-(4-fluorophenyl)-2-hydroxyethylthio]-4-(4-hydroxyphenyl)-1-[4-(5-methoxypyridin-3-yl)phenyl]azetidin-2-one]
- inhibition in vivo at 0.1 mg/kg [1, 2]: ≥ 50%
- inhibition in vivo at 0.1 mg/kg [1, 3]: ≥ 20%
- inhibition at 10 µM (Caco-2 cells): ≥ 50%

SMILES: O=C1[C@H](SC[C@H](O)c2ccc(F)cc2)[C@@H](c2ccc(O)cc2)N1c1ccc(-c2cncc(C(F)(F)F)c2)cc1 [Example 51, (3R,4R)-3-[(2R)-2-(4-fluorophenyl)-2-hydroxyethylthio]-4-(4-hydroxyphenyl)-1-[4-(5-trifluoromethylpyridin-3-yl)phenyl]azetidin-2-one]
- inhibition in vivo at 0.01 mg/kg [1, 2]: ≥ 30%
- inhibition in vivo at 0.1 mg/kg [1, 3]: ≥ 20%
- a serum TC lowering effect at a dose of 0.1 mg/kg [1]: 104%
- inhibition at 10 µM (Caco-2 cells): ≥ 50%

SMILES: COc1cc(N2C(=O)[C@H](SC[C@H](O)c3ccc(F)cc3)[C@H]2c2ccc(O)cc2)ccc1-c1cccnc1 [Example 52, (3R,4R)-3-[(2R)-2-(4-fluorophenyl)-2-hydroxyethylthio]-4-(4-hydroxyphenyl)-1-[3-methoxy-4-(pyridin-3-yl)phenyl]azetidin-2-one]
- inhibition in vivo at 0.1 mg/kg [1, 3]: ≥ 20%
- inhibition at 10 µM (Caco-2 cells): ≥ 50%

SMILES: O=C1[C@H](SC[C@H](O)c2ccc(F)cc2)[C@@H](c2ccc(O)cc2)N1c1ccc(-c2cncc(F)c2)cc1 [Example 55, (3R,4R)-3-[(2R)-2-(4-fluorophenyl)-2-hydroxyethylthio]-1-[4-(5-fluoropyridin-3-yl)phenyl]-4-(4-hydroxyphenyl)azetidin-2-one]
- inhibition in vivo at 0.01 mg/kg [1, 5]: ≥ 30%
- inhibition in vivo at 0.01 mg/kg [1, 4]: ≥ 30%
- inhibition in vivo at 0.01 mg/kg [1, 2]: ≥ 30%
- inhibition in vivo at 0.1 mg/kg [1, 3]: ≥ 20%
- a serum TC lowering effect at a dose of 0.1 mg/kg [1]: 130%
- inhibition at 10 µM (Caco-2 cells): ≥ 50%

SMILES: O=C1[C@H](SC[C@H](O)c2ccc(F)cc2)[C@@H](c2ccc(O)cc2)N1c1ccc(-c2cncc(Cl)c2)cc1 [Example 56, (3R,4R)-3-[(2R)-2-(4-fluorophenyl)-2-hydroxyethylthio]-1-[4-(5-chloropyridin-3-yl)phenyl]-4-(4-hydroxyphenyl)azetidin-2-one]
- inhibition in vivo at 0.01 mg/kg [1, 5]: ≥ 30%
- inhibition in vivo at 0.01 mg/kg [1, 4]: ≥ 30%
- inhibition in vivo at 0.01 mg/kg [1, 2]: ≥ 30%
- inhibition in vivo at 0.1 mg/kg [1, 5]: ≥ 50%
- inhibition at 10 µM (Caco-2 cells): ≥ 50%

SMILES: N#Cc1cncc(-c2ccc(N3C(=O)[C@H](SC[C@H](O)c4ccc(Cl)cc4)[C@H]3c3ccc(O)cc3)cc2)c1 [Example 58, 5-(4-{(3R,4R)-3-[(2R)-2-(4-chlorophenyl)-2-hydroxyethylthio]-4-(4-hydroxyphenyl)-2-oxoazetidinyl}phenyl)pyridine-3-carbonitrile]
- inhibition in vivo at 0.01 mg/kg [1, 5]: ≥ 30%
- inhibition in vivo at 0.01 mg/kg [1, 4]: ≥ 30%
- inhibition in vivo at 0.1 mg/kg [1, 3]: ≥ 20%
- inhibition at 10 µM (Caco-2 cells): ≥ 50%
- inhibition at 12.5 µM (Caco-2 cells): ≥ 60%

SMILES: O=C1[C@H](SC[C@H](O)c2ccc(F)cc2)[C@@H](c2ccc(O)cc2Cl)N1c1ccc(-c2cccnc2)cc1 [Example 59, (3R,4R)-3-[(2R)-2-(4-fluorophenyl)-2-hydroxyethylthio]-4-(2-chloro-4-hydroxyphenyl)-1-[4-(pyridin-3-yl)phenyl]azetidin-2-one]
- inhibition in vivo at 0.01 mg/kg [1, 2]: ≥ 30%
- inhibition in vivo at 0.1 mg/kg [1, 5]: ≥ 50%
- inhibition in vivo at 0.1 mg/kg [1, 3]: ≥ 20%
- inhibition at 12.5 µM (Caco-2 cells): ≥ 60%

SMILES: COc1ccncc1-c1ccc(N2C(=O)[C@H](SC[C@H](O)c3ccc(Cl)cc3)[C@H]2c2ccc(O)cc2)cc1 [Example 61, (3R,4R)-3-[(2R)-2-(4-chlorophenyl)-2-hydroxyethylthio]-4-(4-hydroxyphenyl)-1-[4-(4-methoxypyridin-3-yl)phenyl]azetidin-2-one]
- inhibition in vivo at 0.1 mg/kg [1, 4]: ≥ 50%
- inhibition at 12.5 µM (Caco-2 cells): ≥ 60%

SMILES: O=C1[C@H](SC[C@H](O)c2ccc(Cl)c(F)c2)[C@@H](c2ccc(O)cc2)N1c1ccc(-c2cccnc2)cc1 [Example 81, (3R,4R)-3-[(2R)-2-(4-chloro-3-fluorophenyl)-2-hydroxyethylthio]-4-(4-hydroxyphenyl)-1-[4-(pyridin-3-yl)phenyl]azetidin-2-one]
- inhibition in vivo at 0.1 mg/kg [1, 4]: ≥ 50%
- inhibition in vivo at 0.1 mg/kg [1, 2]: ≥ 50%
- inhibition at 12.5 µM (Caco-2 cells): ≥ 60%

SMILES: O=C1[C@H](SC[C@H](O)c2ccc3sccc3c2)[C@@H](c2ccc(O)cc2)N1c1ccc(-c2cccnc2)cc1 [Example 83, (3R,4R)-3-((2R)-2-benzo[b]thiophen-5-yl-2-hydroxyethylthio)-4-(4-hydroxyphenyl)-1-[4-(pyridin-3-yl)phenyl]azetidin-2-one]
- inhibition in vivo at 0.1 mg/kg [1, 4]: ≥ 50%
- inhibition in vivo at 0.1 mg/kg [1, 2]: ≥ 50%
- inhibition at 12.5 µM (Caco-2 cells): ≥ 60%

SMILES: Cc1cncc(-c2ccc(N3C(=O)[C@H](SC[C@H](O)c4ccc(Cl)cc4)[C@H]3c3ccc(O)cc3)cc2)c1 [Example 85, (3R,4R)-3-[(2R)-2-(4-chlorophenyl)-2-hydroxyethylthio]-4-(4-hydroxyphenyl)-1-[4-(5-methylpyridin-3-yl)phenyl]azetidin-2-one]
- inhibition in vivo at 0.01 mg/kg [1, 4]: ≥ 30%
- inhibition in vivo at 0.01 mg/kg [1, 2]: ≥ 30%
- inhibition at 12.5 µM (Caco-2 cells): ≥ 60%
